According to patent publication US7718764B2, “Biologically active peptide [sequence] derivatives” (CMS Peptides Patent Holding Company Limited, priority 2004, dated 2010):
Marks after values point to notes of the source that are not given here.

Legend:
mice T-lymphocyte = assay: Mice T-lymphocyte transformation in vivo (i.p. dosing 20 days, spleen cells + ConA, MTT, stimulation index); design: species or system BALB/c mice; details: for Effect on mice T-lymphocyte transformation in vivo: at suitable dosages, vs saline control P<0.05
Method: Animals were randomized into two peptide groups (200 μg/kg/day and 50 μg/kg/day), Cyclosporine A group (10 mg/kg/day), and saline group (0.5 ml/day). Each group contained 10 mice, in which half were female and half were male. All test substances were dissolved in 0.5 ml saline and administered intraperitoneally once per day for 20 days. T-lymphocyte transformation and NK cell activity were examined on the day immediately following the last injection. The day after the last test substance administration, the mice were sacrificed by cervical dislocation. The spleens were isolated aseptically and manually dispersed in 10% FBS RPMI-1640 solution using an injection needle. The dispersed cell suspension was further sieved through a 100 gauge 150 μm diameter stainless steel sieve and adjusted to 4×10^6/ml. The cell suspensions were inoculated onto a 96 wells cell culture plate, 100 μl/well with the following design. Assay wells: 100 μl cell suspension+100 μl ConA Control wells: 100 μl cell suspension+100 μl RPMI-1640 Four assay and four control wells were set up for each animal. The plates were incubated at 37° C., 5% CO2 for 68 hours. MTT was then added and the plates read at OD 570 nm referenced at 630 nm with ELISA reader. Stimulation Index SI (%)=(assay well OD/control well OD)×100%.

S180 sarcoma cells = assay: Growth of KM mice-transplanted S180 sarcoma cells in vivo; design: unit not given here; details: Table 12; for Sarcoma volume: V=(1/6)πABC, saline 1.20 ± 0.28; for Sarcoma weight: saline 1.87 ± 0.52
Method: S180 sarcoma cells were transplanted intraperitoneally into KM mice for 6-8 days and the ascites aseptically collected. The cell concentration was adjusted to 1×10^7 per ml with 10% FBS RPMI-1640, and 0.2 ml cell suspension was injected through the armpit into each KM mice for developing the sarcoma bearing mice model. […] Intraperitoneal injection of test substances started on the day immediately after tumor transplantation and continued once per day for 20 consecutive days.
On the day after the last test substance administration, the sarcomas were removed from the mice and weighed. The diameters of each sarcoma on the three planes (A, B, C) were measured by a vernier caliper. The volume of the sarcoma was calculated by the formula: V=(⅙)πABC.

mice NK cell = assay: Mice NK cell activity in vivo (i.p. dosing 20 days, spleen effector cells vs YAC-1 target cells, MTT); design: species or system BALB/c mice
Method: Animals were randomized into two peptide groups (200 μg/kg/day and 50 μg/kg/day), Cyclosporine A group (10 mg/kg/day), and saline group (0.5 ml/day). Each group contained 10 mice, in which half were female and half were male. All test substances were dissolved in 0.5 ml saline and administered intraperitoneally once per day for 20 days. T-lymphocyte transformation and NK cell activity were examined on the day immediately following the last injection. YAC-1 target cells were brought to log phase and adjusted to a density of 1×10^5/ml. Mice spleen cells prepared in section 2.2.2 above were adjusted to a density of 4×10^6/ml and used as effector cells. The cell suspensions were inoculated onto 96 wells cell culture plates as follows: Effector cell wells: 100 μl spleen cell suspension+100 μl RPMI-1640 Assay wells: 100 μl spleen cell suspension+100 μl YAC-1 cell suspension Target cell wells: 100 μl YAC-1 cell suspension+100 μl RPMI-1640 Three assay wells and three effector cell wells were set up for each animal, and 12 target cell wells were set up per cell culture plate. The plates were incubated at 37° C., 5% CO2 for 4 hours, then MTT was added and the plates were read at OD 570 nm referenced at 630 nm with ELISA reader. NK cell activity (%)=1−[(assay wells OD−effector cell wells OD)/target cell wells OD]×100%

[1] = at suitable dosage, vs saline control P<0.05

Substance	Sarcoma volume (S180 sarcoma cells; 250 μg/kg/day)	Sarcoma weight (S180 sarcoma cells; 250 μg/kg/day)	Sarcoma volume (S180 sarcoma cells; 500 μg/kg/day)	Sarcoma weight (S180 sarcoma cells; 500 μg/kg/day)	further results
PEEHPTLLTEAPLNPK [CMS-010.04]	0.17 ± 0.12*^@	0.27 ± 0.19*^@	0.40 ± 0.28	0.62 ± 0.44	SI (mice T-lymphocyte; Table 6, 50 μg/kg/day i.p. 20 days, saline 2.24 ± 0.52): 1.56 ± 0.25; Effect on mice T-lymphocyte transformation in vivo (mice T-lymphocyte): suppress
VAPEEHPTLLTEAPLNP [CMS-010.03]	0.31 ± 0.22	0.68 ± 0.46	0.27 ± 0.33*^@	0.33 ± 0.35*^@	
VAPEEHPTLLTEAPLN [CMS-010.05]	0.23 ± 0.19*^@	0.56 ± 0.33	0.34 ± 0.22	0.47 ± 0.29*^@	
VAPEEHP [CMS-010.22]	0.24 ± 0.08*^@	0.28 ± 0.12*^@	0.73 ± 0.87	0.85 ± 0.73	
VAPEEH [CMS-010.25]	0.48 ± 0.37	0.65 ± 0.53	0.26 ± 0.21*^@	0.52 ± 0.38	SI (mice T-lymphocyte; Table 5, 200 μg/kg/day i.p. 20 days, saline 3.15 ± 0.83): 2.43 ± 0.69; Effect on mice T-lymphocyte transformation in vivo (mice T-lymphocyte): suppress
TLLTEAPLNPK [CMS-010.15]	0.41 ± 0.37	0.45 ± 0.35*^@	0.63 ± 0.35	0.68 ± 0.36	
APEEHPTLLTEAPLNPK [CMS-010.02]	0.36 ± 0.40	0.68 ± 0.72	0.65 ± 0.67	0.97 ± 0.85	
EAPLNPK [CMS-010.23]	0.21 ± 0.15*^@	0.27 ± 0.18^@			
VAPEEHPTLL [CMS-010.16]	0.61 ± 0.44	0.63 ± 0.47	0.92 ± 0.36	0.99 ± 0.42	
VAPEEHPTLLTEAP [CMS-010.08]	0.20 ± 0.14*^@	0.38 ± 0.27*^@	1.01 ± 0.63	1.05 ± 0.64	
VAPEEHPTLLT [CMS-010.14]	0.29 ± 0.21	0.44 ± 0.30*^@	0.56 ± 0.53	0.67 ± 0.70	NK cell activity (%) (mice NK cell; Table 9, 50 μg/kg/day i.p. 20 days, saline 55.3 ± 6.1): 75.3 ± 9.0 %; NK cell activity (%) (mice NK cell; Table 9, 200 μg/kg/day i.p. 20 days, saline 55.3 ± 6.1): 43.1 ± 13.7 %; Effect on mice NK cell activity in vivo (enhancement) (mice NK cell; [1]): enhance; SI (mice T-lymphocyte; Table 7, 50 μg/kg/d i.p. 20 days, saline 2.96 ± 0.61): 2.12 ± 0.51; Effect on mice T-lymphocyte transformation in vivo (mice T-lymphocyte): suppress
EHPTLLTEAPLNPK [CMS-010.09]	0.37 ± 0.44	0.45 ± 0.38*^@	0.84 ± 0.84	0.85 ± 0.70	
VAPEEHPT [CMS-010.20]	0.88 ± 0.77	1.00 ± 0.76	0.54 ± 0.51	0.59 ± 0.46	
TEAPLNPK [CMS-010.21]	0.44 ± 0.22	0.51 ± 0.29	0.44 ± 0.21	0.44 ± 0.22*^@	
LNPK [CMS-010.28]					NK cell activity (%) (mice NK cell; Table 8, 200 μg/kg/day i.p. 20 days, saline 76.0 ± 4.3): 70.3 ± 6.7 %; Effect on mice NK cell activity in vivo (suppression) (mice NK cell; [1]): suppress; SI (mice T-lymphocyte; Table 4, 200 μg/kg/day i.p. 20 days, saline 3.63 ± 0.69): 2.70 ± 0.37; Effect on mice T-lymphocyte transformation in vivo (mice T-lymphocyte): suppress
